Values of other authors, collected in patent US20040092565A1, “Composition and method of sustaining chemotherapeutic effect while reducing dose of chemotherapeutic agent using cox-2 inhibitor and statin” (priority 2001, published 2004).
Like-named read-outs stand apart in the source and are kept apart here. Values belong to the molecule of their own block, whether it stands above or below them.

Tests used:
prostate cancer specimen = conditions: mice, in vivo
[1] = test system: cisplatin-induced side effects; conditions: 5 g of glutathione immediately before cisplatin
[2] = test system: Prostate Cancer Cell Line LNCaP; conditions: literature reports on LNCaP and human prostate carcinoma cells
[3] = package insert

SMILES: CS(=O)(=O)Nc1ccc([N+](=O)[O-])cc1OC1CCCCC1 [NS398]
- angiogenesis of prostate cancer specimen (prostate cancer specimen): inhibit angiogenesis

SMILES: N[C@@H](CCC(=O)N[C@@H](CS)C(=O)NCC(=O)O)C(=O)O [glutathione, gamma-Glu-Cys-Gly]
- intensity of hematologic toxicity ([1]; compared with control group): significantly less pronounced
- overall survival ([1]; vs. 10.5 months in the other group, no statistical difference): 13.5 months

SMILES: CC[C@H](C)C(=O)O[C@H]1C[C@@H](C)C=C2C=C[C@H](C)[C@H](CC[C@@H]3C[C@@H](O)CC(=O)O3)[C@H]21 [lovastatin]
- therapeutic value in prostate cancer [2]: had therapeutic value in treating prostate cancer

- time to maximum plasma concentration ([3]; for some persons): 2 to 9 h
- time to maximum plasma concentration ([3]; on average): 2 to 3 h
SMILES: CS(=O)(=O)c1ccc(C2=C(c3ccccc3)C(=O)OC2)cc1 [rofecoxib]
